Data published in the pKa sets of Baltruschat and Czodrowski (2020).

O=C(O)c1cc([N+](=O)[O-])ccc1CO
pKa (acidic group): 3.14

Cc1csc(S(N)(=O)=O)n1
pKa (acidic group): 8.35

O=C(O)c1ccsc1
pKa (acidic group): 4.03

CC([Se-])CN (centres undefined)
pKa (basic group): 10.8

CCN(CC)CCSCC(C)C
pKa (basic group): 8.83

N/C(CC[NH2+]c1ccccc1)=N\O
pKa (basic group): 2.45

Nc1ccncc1Br
pKa (basic group): 7.15

Brc1ccc2c(c1)CCN2
pKa (basic group): 3.7

Fc1ccc(NC=S)cc1
pKa (acidic group): 11.2

Cc1ccc(S(=O)(=O)NCC[NH+](CC(=O)O)CC(=O)O)cc1
pKa (acidic group): 2.15

O=C(O)CNC(=O)c1ccccc1O
pKa (acidic group): 3.63

CN(O)C(=O)C(C)(C)C
pKa (acidic group): 9.94

C[C@@H]1CNC[C@H](C)[NH2+]1
pKa (basic group): 5.4

C=C(C)[C@@H]1CN[C@H](C(=O)[O-])[C@@H]1CC(=O)[O-]
pKa (basic group): 10.2

Cc1cc(N)ccc1[N+](=O)[O-]
pKa (basic group): 1.64

Fc1ccc(NC(=S)c2cccc(Br)c2)cc1
pKa (acidic group): 10.3

COc1cc(C)nc(-n2nc(C)cc2O)n1
pKa (acidic group): 6.9

[O-]c1nccc2nccnc12
pKa (basic group): 11.1

COc1cc(S(C)=O)ccc1-c1nc2cnncc2[nH]1 (centres undefined)
pKa (acidic group): 8.49
pKa (basic group): 3.81

Nc1ccncc1F
pKa (basic group): 4.77

CN(C)Cc1cc(Cl)ccc1[O-]
pKa (basic group): 11

CN(C)CCSCCN(C)C
pKa (basic group): 9.1

C[C@]12CC[C@@H]3c4ccc(O)cc4CC[C@H]3[C@@H]1C[C@@H](O)[C@@H]2O
pKa (acidic group): 10.8

Cc1nc(-c2ccccc2)oc1O
pKa (acidic group): 8.94

CNC(=O)Oc1ccc2c(c1)[C@@]1(C)CC[NH+](C)[C@H]1N2C
pKa (acidic group): 6.12

CN1CCC(NNc2ccccc2)CC1
pKa (basic group): 8.7

CCC(O)CN(C)CC(C)O (centres undefined)
pKa (basic group): 8.9

N/C(CCNc1ccccc1)=N\O
pKa (basic group): 5.35

CC[NH+](CC)CCN=C(c1ccccc1C)c1ccccc1C
pKa (basic group): 2.8

O/C(=C/c1ccccn1)c1ccccc1
pKa (acidic group): 12.2
pKa (basic group): 3.57

FC(F)(F)c1cccc(NC=S)c1
pKa (acidic group): 10.8

C1CCN(C2CC[NH2+]CC2)CC1
pKa (basic group): 7.97

C1CCCNCC1
pKa (basic group): 11

O=c1oc2cc(O)ccc2cc1-c1nc2ccccc2s1
pKa (acidic group): 7.02

CCCCN(C)N(C)CCCC
pKa (basic group): 7.16

C(CN1CCOCC1)CN1CCOCC1
pKa (basic group): 7.25

CC[NH2+]/C(=C/C(=O)c1cccc(S(=O)(=O)[O-])c1)n1ccnc1
pKa (basic group): 4.5

Nc1ccccc1S(N)(=O)=O
pKa (basic group): 1

O=C(O)CCCl
pKa (acidic group): 4.04

C[C@@H](C(=O)c1ccc(O)cc1)[NH+](C)Cc1ccccc1
pKa (acidic group): 7.5

N/C(C/C(N)=N/O)=N\O
pKa (basic group): 4.77

COc1ccc(O)c(CNC(CO)C(=O)[O-])c1 (centres undefined)
pKa (acidic group): 10.4
pKa (basic group): 8.3

NCCCNCCCN
pKa (basic group): 10.7

[O-][n+]1ccc2ccccc2c1
pKa (basic group): 1.01

Cc1ccc(NN=C(C#N)C#N)cc1
pKa (acidic group): 6.75
pKa (basic group): -0.83

C/N=C1/CCCCC1C (centres undefined)
pKa (basic group): 9.47

Cc1ccc(O)c(Cc2cc([N+](=O)[O-])ccc2O)c1
pKa (acidic group): 6.34

Cc1csc2nccn12
pKa (basic group): 5.36

NCC(N)=S
pKa (basic group): 7.27

COC(=O)[C@@H]1[C@H](O)C[C@@H]2CC[C@H]1N2C
pKa (basic group): 8.85

C[n+]1ccccc1O
pKa (acidic group): 0.32

CC(=O)C(C)[N+](=O)[O-] (centres undefined)
pKa (acidic group): 5.15

Cc1ccc(N)cc1-c1cc(N)ccc1C
pKa (basic group): 5

COc1ccc(C(O)c2ccccc2)cc1 (centres undefined)
pKa (basic group): -8

CC(=O)NCc1cc(C)cc(CNC(C)=O)c1O
pKa (acidic group): 9

C[Si](C)(C)CCCCCC(=O)O
pKa (acidic group): 5.06

C[n+]1ccccc1C(C)(O)O
pKa (acidic group): 10.6

Cc1ccc(N)cc1
pKa (basic group): 5.04

CCCC(=O)OC(C)CN(C)C (centres undefined)
pKa (basic group): 8.27

NCCNCCCO
pKa (basic group): 9.67

CCOc1cccc(C(=O)O)c1
pKa (acidic group): 4.17

CN(C)c1ccc([N+](=O)[O-])cc1
pKa (basic group): 0.69

CC(C)c1ccccn1
pKa (basic group): 5.83

Nc1cccc(Cl)c1
pKa (basic group): 3.59

C[C@@H]1[C@@H](N)[C@H]1[NH3+]
pKa (basic group): 4.35

[SH2+]c1cccc2ncccc12
pKa (basic group): 3.31

Oc1cc2cccnc2c2cccnc12
pKa (acidic group): 8.5
pKa (basic group): 3.9

CC(C)(N)c1ccccc1
pKa (basic group): 10.4

O=C([O-])CCCCCN1CCCCC1
pKa (basic group): 10.5

CCCCCC/[NH+]=C/c1c(C)cnc(C)c1O
pKa (basic group): 3.39

Nc1cccc2ccc3ncccc3c12
pKa (basic group): 5.03

Cc1ccc(S(=O)(=O)N[C@@H](CCC(N)=O)C(=O)[O-])cc1
pKa (acidic group): 11.8

CCN(CC)CCN(CC)CC
pKa (basic group): 9.55

S=C(NCc1ccccc1)c1ccccc1
pKa (acidic group): 12.2

N#CC(C#N)=NNc1ccc([N+](=O)[O-])cc1Cl
pKa (acidic group): 4.15
pKa (basic group): -0.62

O=c1[nH]cnc2[nH]ncc12
pKa (acidic group): 9.38

CNCCc1ccccc1
pKa (basic group): 10.2

O=C(O)C#CCl
pKa (acidic group): 1.89

O=C(NO)c1ccccc1O
pKa (acidic group): 7.39

CC(C=C(c1cccs1)c1cccs1)N(C)C (centres undefined)
pKa (basic group): 8.95

C[N+](C)(C)Cc1cccc(O)c1O
pKa (acidic group): 8.1

CN(C)CCCCC(=O)Oc1cccc([N+](=O)[O-])c1
pKa (basic group): 10.1

COc1ccc(C=O)cc1O
pKa (acidic group): 8.89

COCc1nc(C)c[nH]1
pKa (basic group): 7.03

CCCCCc1c(-c2ccccc2)n[nH]c1O
pKa (acidic group): 8.4

Cc1nnnn1CC(=O)O
pKa (acidic group): 2.16

O=C(O)c1ccc(Br)cc1
pKa (acidic group): 3.99

C[N+]1(CCCCC(=O)O)CCCCC1
pKa (acidic group): 4.33

Cc1cccc(/N=N/c2ccc(N(C)C)cc2)c1
pKa (basic group): 2.33

Cc1ccc(NC(=S)c2ccc(Cl)cc2)cc1
pKa (acidic group): 11.2

Nc1nc[nH+]c(N)c1N
pKa (basic group): 1.47

CCN(CC)c1nnn[nH]1
pKa (acidic group): 6.33

CC/C(=N/O)NO
pKa (acidic group): 10.7
pKa (basic group): 5.15

O=C(O)/C=C/c1ccc2c(c1)OCO2
pKa (acidic group): 4.6

CCCCOC(=O)c1ccc(N)cc1
pKa (basic group): 2.47

CCNc1nc(N)nc(N)n1
pKa (basic group): 5.23

Cc1cc(C)c(CO)c(C)n1
pKa (basic group): 7.1

C[C@@H](Cc1ccccc1)N(C)C
pKa (basic group): 9.4

Cc1cccc(C(=O)[O-])c1O
pKa (acidic group): 14.4

CN(C)/C=N/c1ccc(O)cc1
pKa (acidic group): 10.5
pKa (basic group): 8.28

CSC(=N)N
pKa (basic group): 9.83

O=C(O)c1cnc(Cl)s1
pKa (acidic group): 3

CC#CC#CCC(=O)O
pKa (acidic group): 3.23

O=C(O)[C@H]1CC[C@@H](O)CC1
pKa (acidic group): 4.84

Nc1ncnc2cn[nH]c12
pKa (acidic group): 10.2
pKa (basic group): 5

c1nnn[nH]1
pKa (acidic group): 4.84

O=C([O-])/C(=N\O)c1ccccc1
pKa (acidic group): 10.9

Nc1ncc([N+](=O)[O-])s1
pKa (basic group): 0.61

CCN(CC)Cc1cccc(C)c1O
pKa (basic group): 8.19

NCc1ccc(C=O)o1
pKa (basic group): 8.1

[NH3+]CCCCC#CC#CCCC(=O)O
pKa (acidic group): 4.15

Nc1c2ccccc2[nH+]c2ccc(O)cc12
pKa (acidic group): 7.71

CCN(CC)CCBr
pKa (basic group): 7

CC[NH2+]CC(=O)O
pKa (acidic group): 2.31

N#CCCNCCC#N
pKa (basic group): 5.23

Nc1ncc(Br)s1
pKa (basic group): 3.61

CCCSC(=O)CCCc1c[nH]cn1
pKa (basic group): 7.55

CCOC(=O)c1ccccc1-n1nc(O)c(CC)c1C
pKa (acidic group): 12.4

O=C1[C@@H]2C[C@@H](CN3CCCC[C@@H]23)[C@H]2CCCCN12
pKa (basic group): 7.7

CCCNCC[S-]
pKa (basic group): 10.9

CC(C)c1ccc2c(c1)CC[C@H]1[C@](C)(C(=O)O)CCC[C@]21C
pKa (acidic group): 5.7

[NH3+]CCc1ccccn1
pKa (basic group): 3.93

Nc1ncnc2nc[nH]c12
pKa (acidic group): 9.74
pKa (basic group): 4.2

O=S(=O)(Nc1ccc(Cl)cc1)C(F)(F)F
pKa (acidic group): 3.9
